Source: patent US20240209022A1, “NOVEL PEPTIDE HAVING ANTI-INFLAMMATORY AND TISSUE REGENERATIVE ACTIONS” (KOREA RESEARCH INSTITUTE OF BIOSCIENCE AND BIOTECHNOLOGY, priority 2020, published 2024)

B1: Amuc_1409: SEQ ID NO: 15, functional fragment obtained by eliminating the leader sequence from SEQ ID NO: 14; protein derived from Akkermansia muciniphila (protein)
chain: IPESSVPAAAVSSIKGAYPNAGPIEWDSEMHGMERIYEAEFRINGFQFDVKIAPDGKIVRIKEEIAASSLPEAVRASVLKRYPGCRIKEAEKITEGELVRYKVEVADSRDDYDVLIAPDGNILHVDR
modifications: Amuc_1409_fragment
notes: protein derived from Akkermansia muciniphila

What was measured:
[1] = system: ConA-induced acute hepatitis model; assay: ConA-induced acute hepatitis model; assay type: in vivo, C57BL/6J mice; conditions: vs PBS buffer group; for ALT / AST: plasma, 9 hours after ConA
Method: An acute hepatitis model was induced by dissolving ConA (concanavalin A) in PBS buffer (phosphate buffered saline) at 1.5 mg/mL and injecting the solution into 8-week-old specific pathogen free (SPF) male C57BL/6J mice through the tail vein in proportion to the mouse body weight based on 100 μL/10 g. Amuc_1409 or PEP001, PEP002, PEP003, PEP004, or PEP005 was dissolved in PBS buffer at a concentration of 6.7 μM from 3 days before ConA administration, and PEP007, PEP008, PEP009, or PEP010 was dissolved in PBS buffer at a concentration of 0.2 μg/150 μL from 3 days before ConA administration, and Amuc_1409 was injected into the mouse peritoneal cavity once a day at the same time by 210 μL and PEP001 to PEP010 by 150 μL, and intraperitoneally injected additionally one time 30 minutes before ConA injection, and the experiment was terminated 9 hours after ConA intravenous injection. Into the control group, PBS buffer was intravenously injected in the same manner. At the end of the experiment 9 hours after ConA intravenous injection, blood was collected from the orbital venous plexus using a heparin-treated capillary tube, and the collected blood was immediately centrifuged at 10,000 rpm (4° C.) for 10 minutes to separate plasma and then subjected to the analysis of alanine aminotransferase (ALT) and aspartate aminotransferase (AST), which are indicators of liver damage, using an automatic blood biochemical analyzer (Beckman Coulter AU480 automatic analyzer, Beckman Coulter). The liver was harvested, a part of the liver was fixed in 10% NBF at room temperature for 24 hours or more and then embedded in paraffin to prepare a 5 μm-thick section, and the section was stained with hematoxylin and eosin (H&E).

[2] = system: animal model of muscle atrophy/muscle strength loss due to natural aging (geriatric sarcopenia); assay: Geriatric sarcopenia model (natural aging): muscle strength and muscle mass; assay type: in vivo, C57BL/6 mice; conditions: vs PBS buffer group; for grip strength: 11th week of administration, oral 0.2 μg/150 μL; for GC (gastrocnemius) muscle weight / TA (tibialis anterior) muscle weight / soleus muscle weight: after the experiment; for muscle strength (grip strength): oral
Method: The efficacy of the peptides was verified using an animal model of muscle atrophy/muscle strength loss due to natural aging (geriatric sarcopenia). At the time of administration of Amuc_1409, 80 to 83-week old C57BL/6 male mice were used. Amuc_1409 was dissolved in PBS buffer at a concentration of 2.4 μM and then orally administered to the mice by 150 μL per animal at the same time once a day for 32 weeks. To the control group, PBS buffer was orally administered in the same manner. At the 16th week of Amuc_1409 administration, aged mice were allowed to hold the wire net connected to the muscle strength probe of the grip strength meter with all four paws, and then the tail was carefully pulled backward to measure the maximum grip strength at the moment at which the mice held onto the wire net. For muscle weight, after administration, the gastrocnemius (GC), soleus, and tibialis anterior (TA) muscles from both hind paws of the aged mice of each group were carefully separated to avoid damage, and each weight was measured. Muscle weight versus body weight was calculated by correcting with the body weight of the mouse. After the end of the experiment, in order to analyze the size of muscle fibers in each group, TA muscles were fixed in 10% formalin, and frozen section samples (8 μm) were prepared to prepare slides. The prepared slides were washed with PBS buffer solution, permeabilized with 0.5% Triton X-100, blocked, and treated with primary antibody (anti-laminin). After 24 hours, a fluorescent secondary antibody (Alexa Fluor 488 Goat anti-rabbit IgG) was applied, and the slides were finally treated with DAPI for nuclear staining. The immunostained slides were subjected to photographing of muscle tissue using a confocal microscope. Using image analysis software (ImageInside), the distribution of cross-sectional area of muscle fibers was calculated for each size from a minimum of 500 μm^2 or less to 3500 μm^2 or more. Meanwhile, in order to examine the efficacy of Amuc_1409 as well as its fragments, 82- to 83-week-old C57BL/6 male mice were used. PEP001 was dissolved in PBS buffer at a concentration of 2.4 μM and then orally administered to the mice by 150 μL per animal at the same time once a day for 10 weeks. To the control group, PBS buffer was orally administered in the same manner. At the 10th week of PEP001 administration, the maximum grip strength and muscle weight were calculated in the same manner as the measurement in Amuc_1409. At the end of the experiment, a part of the GC muscle excised was homogenized with Trizol to extract RNA. Reverse transcriptase was added to the obtained RNA and reacted to synthesize cDNA, and SYBR Green and primers were added to perform quantitative real-time PCR (RT-qPCR). The gene expression level of insulin-like growth factor (IGF-1) involved in protein synthesis in muscle cells was then quantified. In addition, in order to confirm the efficacy of the novel tetrapeptides and tripeptides PEP006 to PEP013, the improvement efficacy on geriatric sarcopenia was examined using naturally aged 76 to 78-week old female C57BL/6J mice. For an additional 12 weeks, the novel tetrapeptides PEP006, PEP007, PEP008, PEP009, and PEP010 or novel tripeptides PEP011, PEP012, and PEP013 were each dissolved in PBS buffer at a concentration of 0.2 μg/150 μL and then orally administered to the naturally aged mice by 150 μL per mouse at the same time until the end of the test. To the control group, PBS buffer was orally administered in the same manner. For all animals, general symptoms were observed immediately before administration at the start of administration, and grip strength was measured at the 11th week of administration in order to analyze muscle strength attenuation. […]

[3] = system: C57BL/6J naturally aged mice; assay: Skin aging in naturally aged mice (skin H&E); assay type: in vivo, C57BL/6J mice; conditions: oral, vs PBS buffer group
Method: As an animal model of aging, 19- to 22-month old C57BL/6J naturally aged mice were used. Solid feed and water were sufficiently supplied until the day of the experiment, the environment was maintained at a temperature of 22° C. 2° C., humidity of 55%±15%, and a 12-hour light/dark cycle, and the mice were used for the experiment. Amuc_1409 and PEP001 were dissolved in PBS buffer at 10 μg/150 μL and 0.7 μg/150 μL, respectively, and then orally administered to the naturally aged mice by 150 μL per animal at the same time once a day for […], and novel tetrapeptides PEP006, PEP007, PEP008, PEP009, and PEP010 and novel tripeptides PEP011, PEP012, and PEP013 were each dissolved in PBS buffer at a concentration of 0.2 μg/150 μL and then orally administered to the naturally aged mice by 150 μL per animal at the same time once a day for 10 weeks. To the control group, PBS buffer was orally administered in the same manner.
On the day to be the 10th week of administration, a part of the tissue was excised from the back of the mouse and fixed in 10% formalin for 24 hours or more for histopathological analysis.
The fixed skin tissue was embedded in paraffin to prepare a 5 μm-thick section, and the skin section was H&E-stained with hematoxylin and eosin to analyze the skin epidermis thickness and the number of hair follicles.

Molecule	ALT [1]	AST [1]	grip strength [2]	GC (gastrocnemius) muscle weight [2]	TA (tibialis anterior) muscle weight [2]	soleus muscle weight [2]	number of hair follicles [3]	thickness of the skin epidermis [3]	muscle strength (grip strength) ([2]; 10th week of administration)	IGF-1 gene expression in GC muscle ([2]; 10th week of administration)	muscle strength (grip strength) ([2]; 16th week of administration)	muscle fibers with a size of 2,000 μm^2 or more in the TA muscle ([2]; laminin immunostaining)	number of muscle fibers with a cross-sectional size of 500 μm^2 or less in the TA muscle ([2]; laminin immunostaining)	average size of all muscle fibers [2]	inflammatory cells infiltration into the liver and necrosis in the liver parenchyma (H&E) [1]
AVSSI (PEP002)	significantly decreased	tended to decrease	–	–	–	–	–	–	–	–	–	–	–	–	–
VGAY (PEP010)	significantly decreased	decreased close to a significant level	significantly increased	tended to increase	tended to increase	tended to increase	tended to increase	significantly increased	–	–	–	–	–	–	–
AQS [PEP011]	–	–	significantly increased	tended to increase	tended to increase	tended to increase	–	significantly increased	–	–	–	–	–	–	–
AIS [PEP013]	–	–	significantly increased	tended to increase	tended to increase	tended to increase	tended to increase	increased close to a significant level	–	–	–	–	–	–	–
GAY [PEP005]	decreased close to a significant level	tended to decrease	–	–	–	–	–	–	–	–	–	–	–	–	–
AVSSIKGAY (PEP001)	decreased close to a significant level	decreased close to a significant level	–	significantly increased	increased	significantly increased	–	significantly increased	significantly increased	tended to increase	–	–	–	–	–
AVS (AVSSIKGAY) [PEP004]	significantly decreased	tended to decrease	–	–	–	–	–	–	–	–	–	–	–	–	–
KGAY (PEP003)	significantly decreased	tended to decrease	–	–	–	–	–	–	–	–	–	–	–	–	–
AGAY (PEP006)	–	–	significantly increased	tended to increase	tended to increase	tended to increase	tended to increase	significantly increased	–	–	–	–	–	–	–
AGS [PEP012]	–	–	significantly increased	tended to increase	tended to increase	tended to increase	tended to increase	significantly increased	–	–	–	–	–	–	–
RGAY (PEP007)	significantly decreased	tended to decrease	increased to a significant level	tended to increase	tended to increase	increased to a significant level	tended to increase	significantly increased	–	–	–	–	–	–	–
SGAY (PEP009)	tended to decrease	tended to decrease	significantly increased	tended to increase	tended to increase	tended to increase	tended to increase	significantly increased	–	–	–	–	–	–	–
IGAY (PEP008)	tended to decrease	–	significantly increased	tended to increase	tended to increase	tended to increase	tended to increase	significantly increased	–	–	–	–	–	–	–
B1	significantly decreased	significantly decreased	–	increased	increased	significantly increased	–	significantly increased	–	–	significantly increased	significantly increased	decreased	significantly increased	markedly reduced
